The test system of data set [1] is A549 cells. Put plainly: A549 cell proliferation, MTT assay. The class given is cell-based, human. As to the method: A microculture 3,(4,5-dimethylthiazoyl-2-yl) 2,5 (diphenyl-tetrazolium bromide) (MTT) assay, (Marshall, N. J., et al. (1995) A critical assessment of the use of microculture tetrazolium assays to measure cell growth and function. Growth Regul. 5: 69-84.), was used to examine the actions of LXs and other eicosanoids on cell proliferation. A549 cells and fibroblasts from exponential-phase maintenance cultures were counted and dispensed within replicate 96-well culture plates in 100 μl volumes of medium (˜2000 cells/well). Following 24 hours at 37° C., the culture medium was removed, and fresh medium (100 μl) containing either the compounds (5-1000 nM) or vehicle (medium plus 0.15% ethanol) was added to 4 replicates for each condition studied and the culture plates were then incubated for up to 96 hours at 37° C. in a 5% CO2 atmosphere. At the end of this period, 25 μl of freshly prepared MTT in HBSS (5 mg/ml) was added to the wells and the plates were incubated for 4 hours at 37° C. Dye solution was aspirated, wells were washed once with HBSS and dye taken up by the cells was extracted in 100 μl of isopropyl alcohol:1 N HCl (96:4, v/v) and quantitated at 570 nm using a microplate reader (Molecular Devices, Menlo Park, Calif.). In some experiments, cells were grown in 12-well culture plates, treated as above and enumerated using a Neubauer hemocytometer. Viability was assessed routinely using trypan blue exclusion assay. For the A549 cells and fibroblasts, a linear relation was established for the MTT values and cell number within the range of the experiments shown (r=0.995, P<0.005). A549 cells grown for 72 hours in the presence of the compounds (5-1000 nM) or vehicle (0.15% EtOH) were lysed with 0.25 N NaOH and the cellular protein content was determined by applying the Bio-Rad (Richmond, Calif.) microassay method using bovine serum albumin as standard. The mean cellular protein content in resting A549 cells was 46.6±1.5 pg/cell.
In general terms: Formazan colour is commonly taken as a measure of viable cells.

The test system of data set [2] is human skin fibroblasts. Put plainly: Fibroblast proliferation, MTT assay. It is filed as cell-based. To be noted: Homo sapiens, Skin fibroblast; 100 nM, n=3. An excerpt:
Human type II epithelial A549 cells from human lung carcinoma and normal human skin fibroblast (breast) were obtained from the American Type Culture Collection (Rockville, Md.). The A549 cell line originated from a human alveolar cell carcinoma and was a useful cell line because it was easily assessable and could be maintained in culture without contaminating tissue macrophages. (Lieber, M., et al (1976) A continuous tumor-cell line from a human lung carcinoma with properties of type II alveolar epithelial cells. Int. J Cancer Fibroblasts were utilized within their limited window of viability and their passage numbers were recorded (results are reported for cells from 3-5 passages). Epithelial A549 cells were seeded into T-75 cm^2 tissue culture flasks and maintained in F-12K medium supplemented with 10% heat-inactivated FBS, penicillin (50 U/mL) and streptomycin (50 (g/mL). Human PMN from healthy donors who had not taken ASA or other medications for at least two weeks were obtained by Ficoll-Hypaque gradient centrifugation and dextran sedimentation, (Böyum A. (1968) Isolation of mononuclear cells and granulocytes from human blood. […] Viability of A549 cells and PMN was determined by their ability to exclude trypan blue and were 95±2 and 97±1%, respectively.
A microculture 3,(4,5-dimethylthiazoyl-2-yl) 2,5 (diphenyl-tetrazolium bromide) (MTT) assay, (Marshall, N. J., et al. (1995) A critical assessment of the use of microculture tetrazolium assays to measure cell growth and function. Growth Regul. 5: 69-84.), was used to examine the actions of LXs and other eicosanoids on cell proliferation. A549 cells and fibroblasts from exponential-phase maintenance cultures were counted and dispensed within replicate 96-well culture plates in 100 μl volumes of medium (˜2000 cells/well). […] Dye solution was aspirated, wells were washed once with HBSS and dye taken up by the cells was extracted in 100 μl of isopropyl alcohol:1 N HCl (96:4, v/v) and quantitated at 570 nm using a microplate reader (Molecular Devices, Menlo Park, Calif.). […]

Data set [3] has as its system Intact neutrophils from peripheral blood. The data set can be described thus: LXA4 metabolism by intact neutrophils. The class given is in vitro ADME, human. To be noted: intact neutrophils of healthy donors. The procedure: Human PMN were obtained from healthy volunteers by gradient centrifugation of heparinized fresh venous blood (Böyum, A. ([…]) Scand. J. Clin. Lab. Invest. 21:77). HL-60 cells were seeded in RPMI supplemented with penicillin (100 U/ml), streptomycin (100 μ/ml), fetal bovine serum (10%) (Hyclone, Logan, Utah) and incubated (37° C. with 5% CO2 atmosphere) in plastic 250 ml flasks. Individual flasks containing […] HL-60 cells/ml were incubated in the presence or absence of phorbol 12-myristate 13-acetate (PMA) (10 or 16 nM, 24-27 h) and adherence was monitored for induction of macrophage-like phenotype as in Collins, S. J. (1987) Blood 70:1233. […]
Incubations with eicosanoids were stopped with cold methanol containing either PGB2 or 5-HETE as internal standards (5-HETE was used when 15-oxo-ETE was quantified). […] Formation of 15-oxo-ETE by 100,000 g supernatants (cf. Agins, A. P. et al. (1987) Agents Actions 21:397; Xun, C-Q. et al.(1991) Biochem. J. 279:553; and Sok, D-E. et al. (1988) Biochem. Biophys. Res. Commun. 156:524) was quantified after RP-HPLC using an ODS column (4.6 mm×25 cm) eluted with methanol/H2O/acetic acid (70:30:0.01, v/v/v) monitored at 280 nm with a flow rate of 1 ml/min. […] On-line spectra were recorded using a diode array detector (Hewlett-Packard 1040M series II) equipped with HPLC^3D ChemStation software (DOS series). […]

Each structure is given as a SMILES string.

What is called inhibition is the relative decrease from the control value, in per cent. As for `CCCCC[C@H](O)/C=C/C=C\C=C\C=C\[C@@H](O)[C@@H](O)CCCC(=O)O` [LXA4, (5S, 6R, 15S)-trihydroxy-7E, 9E, 11Z, 13E-eicosatetraenoic acid], in data set [1] (1 μM, after 72 and 96 hours of treatment), the “inhibition of A549 cell proliferation over time” value is listed as “inhibited A549 cell proliferation”. Also, the inhibition at 0.1 µM turned out to be 16.3 ± 5.2% in data set [1] (Homo sapiens, A549, 10^−7 M, 72 hours at 37° C., mean ± SEM, 3 to 7 experiments) and 10.7% in data set [2]. In data set [1] (Homo sapiens, A549, MTT assay, 72 hours, read-out: half maximum inhibition (IC50) of A549 cell proliferation), the IC50 is about 80 nM. In data set [3], the “metabolism of exogenous LXA4” value is “did not significantly metabolize”.

The values are drawn from US20030134901A1, “Lipoxin compounds and their use in treating cell proliferative disorders” (priority 1993, published 2003).
